pEC50, pIC50: −log10 of the molar value. Read-outs that look alike come from different tables or passages of the source.
Assays:
[1] = test system: Luciferase-encoding HCMV, AD169 strain; experiment: CMV Luciferase assay (cellular herpesvirus replication); assay type: cell-based
Experimental: For all viral assays, 10 mM DMSO stock compound solutions were serially diluted in DMSO at 3.16 fold dilutions in 96-well clear round bottom plates. Compounds were then diluted in assay media at 1:20 and subsequently 10 μL of these dilutions were added to cells for final compound concentrations ranging either from 0.0159 μM to 50 μM in 0.5% DMSO/assay media, or from 0.00318 to 10 μM in 0.5% DMSO/assay media.
The assay uses a Luciferase-encoding HCMV. Luciferase is expressed under the control of a late viral gene (pp28) promoter in the AD169 strain, so that expression of the reporter is dependent on viral DNA replication. Compounds that affect any stage from viral entry to DNA replication result in a change in luciferase levels.
Viral replication in the presence or absence of compounds was measured by luciferase activity according to the following procedure: Neo-natal normal human dermal fibroblast cells (NN-NHDF, from ATCC cat #201-010) were seeded at 9,000 cells/well in 96-well white solid bottom plate at 80 uL/well in assay media: 2% FBS, 4 mM GlutaMax® (Invitrogen cat #35050) in DMEM/high glucose/no glutamine/no phenol red media (Invitrogen cat #31053). After 2 hrs at 37° C., 10 uL of compound diluted in assay media or 5% DMSO (final 0.5% DMSO/well) was added and the plates returned to 37° C. One hour later, 10 uL of virus diluted in assay media was added at a final Multiplicity of infection (MOI) of 1. Plates were incubated at 37° C. for 72 hrs. At 72 hours post-infection (hpi), plates were equilibrated to room temperature. After 25 min, 100 uL Renilla-Glo® Luciferase Assay Reagent (Promega cat # E2750) was added to each well and incubated for 10 min. Plates were covered to protect from light. Luminescence was measured on the PHERAstar FS®.
The following controls were included in the data analysis: No virus, no compound (0.5% DMSO)=IC (maximal inhibitory control); Virus, no compound (0.5% DMSO)=NC (neutral control). Data were analyzed using an internal Novartis software (Helios). The means of the controls (NC, IC) were used to normalize the results to a % scale using the formula: % Control=100−(100*(Sample value−NC)/(IC−NC)).
For each compound, the software derived an EC50 using a 4-parameter logistical model.

[2] = target: human CMV DNA polymerase UL54 (Human cytomegalovirus (strain AD169) (HHV-5) (Human herpesvirus 5), UniProt P08546); experiment: CMV polymerase biochemical assay (molecular beacon-based)
Experimental: (§1) Both human CMV DNA polymerase UL54 and human HSV DNA polymerase UL30 were produced as N-terminal MBP fusion of the full length, wild type recombinant proteins in order to enhance soluble expression in insect cell expression system. The proteins were expressed in sf9 insect cells via baculovirus transduction and cells were harvested after 48 hours. The soluble proteins were purified using the standard Ni-IMAC purification strategy via the N-terminal hexa-Histidine tag, followed by heparin affinity chromatography. Both of the final MBP fusion proteins were more than 90% pure and the yield of UL54 was up to 1.8 mg per liter culture while UL30 was up to 15 mg per liter culture. All purification steps were performed on ice, with buffers chilled on ice and FPLC fraction collectors set at 6° C. […] UL30 protein was stored in buffer containing 20 mM HEPES, pH7.0, 420 mM NaCl, 20% glycerol, 6 mM Imidazole, and 0.8 mM DTT at−80° C.
(§2) DNA polymerase activity was measured using a molecular beacon-based assay, as described in Ma et. al.
(§3) 100 pM CMV polymerase or 625 pM HSV polymerase was added to a buffer containing 20 mM Tris, pH=7.5, 100 mM NaCl, 10 mM MgCl2, 0.01% Tween-20, 0.5 mM EDTA, 10% Sucrose and 1 mM DTT. The inhibitor was pre-incubated with the polymerase for 30 minutes at room temperature. Reactions were initiated by the addition of a mixture containing 1.25 uM dATP, 1.25 uM dCTP, 1.25 uM dTTP, 1.25 uM dGTP, 200 nM Primer B (5′-GAC GGG AAG-3′5′-GAC GGG AAG-3′) and 100 nM molecular beacon (5′-5,6-FAM-CCTCTCCGTGTCTTGTACTTCCCGTCAGAGAGG-BHQ1-3′). For human CMV polymerase the reactions were incubated for 60 minutes at room temperature. For HSV polymerase the reactions were incubated for 20 minutes at room temperature. The reactions were then read on a Perkin-Elmer EnVision 2101 reader (fluorescence) using an excitation of 480 nm and emission of 535 nm. 1050s were determined using an internal Novartis software (Helios).
as §3, with “nm.” for “nm. 1050s were determined using an internal Novartis software (Helios).”

[3] = target: human HSV DNA polymerase UL30 (Human herpesvirus 1 (strain 17) (HHV-1) (Human herpes simplex virus 1), UniProt P04293); experiment: HSV polymerase biochemical assay (molecular beacon-based)
Experimental: as §1, §2, §3
as §3, with “nm.” for “nm. 1050s were determined using an internal Novartis software (Helios).”

[4] = Human betaherpesvirus 5, AD169, read-out: CMV-Luc Cellular EC50

| SMILES | pEC50 [1, 4] | pIC50 [2] | pIC50 [3] | pEC50 ([1]; read-out: CMV-Luc Cellular EC50) |
| --- | --- | --- | --- | --- |
| CS(=O)(=O)C1(CN2CCn3c(c(F)cc(C(=O)NCc4ccc(C#N)cc4)c3=O)C2=O)CC1 [Example 164] | 6.60 | 7.89 | 6.52 |  |
| CS(=O)(=O)NCCN1CCn2c(ccc(C(=O)NCc3ccc(Cl)cc3)c2=O)C1=O [Example 62, N-(4-chlorobenzyl)-2-(2-(methylsulfonamido)ethyl)-1,6-dioxo-2,3,4,6-tetrahydro-1H-pyrido[1,2-a]pyrazine-7-carboxamide] | 4.70 | 6.18 | 5.37 |  |
| CN1CCC(S(=O)(=O)C2(CN3CCn4c(ccc(C(=O)NCc5ccc(C#N)c(F)c5)c4=O)C3=O)CC2)C1 (stereo not shown) [Example 81-2] | 6.31 | 7.95 | 6.69 |  |
| O=C(NCc1ccc(Cl)cc1)c1ccc2n(c1=O)CCN(CCN1CCCCC1=O)C2=O [Example 57] | 5.14 | 6.43 | 5.21 |  |
| O=C(NCc1ccc(Cl)cc1)c1ccc2n(c1=O)CCN(CCN1CCCC1=O)C2=O [Example 56] | 5.42 | 6.51 | 5.32 |  |
| CC(CN1CCn2c(ccc(C(=O)NCc3ccc(C#N)cc3)c2=O)C1=O)S(=O)(=O)C1CC1 (stereo not shown) [Example 192] | 5.09 | 6.71 | 5.52 |  |
| C[C@@H](NC(=O)c1ccc2n(c1=O)CCN(CC1(S(C)(=O)=O)CC1)C2=O)c1ccc(Cl)cc1 [Example 45] | 5.00 | 6.34 | 3.89 |  |
| CC(C)(c1nnn[nH]1)S(=O)(=O)C1(CN2CCn3c(ccc(C(=O)NCc4ccc(Cl)cc4)c3=O)C2=O)CC1 [Example 186, 2-((1-((2-(1H-tetrazol-5-yl)propan-2-yl)sulfonyl)cyclopropyl)methyl)-N-(4-chlorobenzyl)-1,6-dioxo-1,3,4,6-tetrahydro-2H-pyrido[1,2-a]pyrazine-7-carboxamide] | 5.18 | 8.92 | 7.69 |  |
| CS(=O)(=O)CCCN1CCn2c(c(CO)cc(C(=O)NCc3ccc(Cl)cc3)c2=O)C1=O [Example 139] | 4.30 | 6.00 | 5.45 |  |
| CS(=O)(=O)CC1(CN2CCn3c(ccc(C(=O)NCc4ccc(Cl)cc4)c3=O)C2=O)CC1 [Example 173, N-(4-chlorobenzyl)-2-((1-((methylsulfonyl)methyl)cyclopropyl)methyl)-1,6-dioxo-1,3,4,6-tetrahydro-2H-pyrido[1,2-a]pyrazine-7-carboxamide] | 6.44 | 7.69 | 6.63 |  |
| CN(C1(CN2CCn3c(ccc(C(=O)NCc4ccc(Cl)cc4)c3=O)C2=O)CC1)S(C)(=O)=O [Example 174] | 5.38 | 7.19 | 5.57 |  |
| N#Cc1ccc(CNC(=O)c2ccc3n(c2=O)CCN(CC2(S(=O)(=O)CC4CC4)CC2)C3=O)cc1F [Example 107-3] | 6.76 | 8.66 | 7.14 |  |
| CCS(=O)(=O)NC1(CN2CCn3c(ccc(C(=O)NCc4ccc(Cl)cc4)c3=O)C2=O)CC1 [Example 199] | 5.76 | 7.27 | 5.95 |  |
| C[C@@H](CCO)S(=O)(=O)C1(CN2CCn3c(ccc(C(=O)NCc4ccc(C#N)cc4)c3=O)C2=O)CC1 (single isomer, unassigned) [Example 8, N-(4-cyanobenzyl)-2-((1-((4-hydroxybutan-2-yl)sulfonyl)cyclopropyl)methyl)-1,6-dioxo-2,3,4,6-tetrahydro-1H-pyrido[1,2-a]pyrazine-7-carboxamide] | 6.11 | 8.34 | 6.95 |  |
| COCC(C)(C)S(=O)(=O)C1(CN2CCn3c(ccc(C(=O)NCc4ccc(C#N)cc4)c3=O)C2=O)CC1 [Example 187] | 7.83 | 9.40 | 7.28 |  |
| N#Cc1ccc(CNC(=O)c2ccc3n(c2=O)CCN(CC2(S(=O)(=O)C4(C(F)F)CC4)CC2)C3=O)cc1 [Example 99-1] | 7.36 | 9.00 | 7.31 |  |
| CS(=O)(=O)C1(CN2CCn3c(ccc(C(=O)NCc4ccc(Cl)cc4)c3=O)C2=O)CCC1 [Example 49] |  | 7.38 | 5.60 | 5.55 |
| COC1(CN2CCn3c(ccc(C(=O)NCc4ccc(Cl)cc4)c3=O)C2=O)CC1 [Example 171, N-(4-chlorobenzyl)-2-((1-methoxycyclopropyl)methyl)-1,6-dioxo-1,3,4,6-tetrahydro-2H-pyrido[1,2-a]pyrazine-7-carboxamide] | 6.20 | 7.14 | 5.55 |  |
| CC(C)S(=O)(=O)C1(CN2CCn3c(ccc(C(=O)NCc4ccc(C#N)cc4)c3=O)C2=O)CC1 [Example 32] | 7.28 | 8.80 | 7.31 |  |
| CC1CN(CCN(C)S(C)(=O)=O)C(=O)c2ccc(C(=O)NCc3ccc(Cl)cc3)c(=O)n21 (stereo not shown) [Example 91, N-(4-chlorobenzyl)-4-methyl-2-(2-(N-methylmethylsulfonamido)ethyl)-1,6-dioxo-2,3,4,6-tetrahydro-1H-pyrido[1,2-a]pyrazine-7-carboxamide] | 5.61 | 6.73 | 5.65 |  |
| N#Cc1ccc(CNC(=O)c2ccc3n(c2=O)CCN(CC2(S(=O)(=O)C4(F)CC4)CC2)C3=O)cc1 [Example 77-1, N-(4-cyanobenzyl)-2-((1-((1-fluorocyclopropyl)sulfonyl)cyclopropyl)methyl)-1,6-dioxo-2,3,4,6-tetrahydro-1H-pyrido[1,2-a]pyrazine-7-carboxamide] | 6.90 | 8.49 | 7.02 |  |
| CN1CCn2c(ccc(C(=O)NCc3ccc(Cl)cc3)c2=O)C1=O [Example 114, N-(4-chlorobenzyl)-2-methyl-1,6-dioxo-2,3,4,6-tetrahydro-1H-pyrido[1,2-a]pyrazine-7-carboxamide] |  | 5.40 | 4.60 |  |
| CN(CCN1CCn2c(c(Br)cc(C(=O)NCc3ccc(Cl)cc3)c2=O)C1=O)S(C)(=O)=O [Example 122, 9-bromo-N-(4-chlorobenzyl)-2-(2-(N-methylmethylsulfonamido)ethyl)-1,6-dioxo-1,3,4,6-tetrahydro-2H-pyrido[1,2-a]pyrazine-7-carboxamide] |  | 6.46 | 5.30 |  |

From patent publication US12466821B2 (Novartis AG, priority 2018, dated 2025)
